For the test, the system named is VSVΔG-SW (S glycoprotein of the SARS-CoV-2 Wuhan variant). The test is described as follows: microbe, parasite or virus in culture. Type of test: cell-based. The conditions noted are these: for IC50 against VSVΔG-SW: 0.3125–40 μM.

pIC50: −log10 of the molar value.

Consider `CNC(=O)C(C#N)(Cc1cc(Cl)cc2c1OCOC2)Cc1cc(Cl)cc2c1OCOC2` [PCM-0068389, N-methyl3-(6-chloro-2,4-dihydro-1,3-benzodioxin-8-yl)-2-[(6-chloro-2,4-dihydro-1,3-benzodioxin-8-yl)methyl]-2-cyanopropionamide], for which the “IC50 against VSVΔG-SW” value was “lost all activity”.

As usually defined, the pIC50 is −log10 of the IC50, conventionally taken in molar units. As for `Cc1cccc(NC(=O)CS(=O)(=O)c2nc(-c3ccccc3)cn2-c2ccc(Cl)cc2)c1C` [PCM-0163855, 2-((1-(4-chlorophenyl)-4-phenyl-1H-imidazol-2-yl)sulfonyl)-N-(2,3-dimethylphenyl)acetamide], the negative-log IC50 (pIC50) (Severe acute respiratory syndrome coronavirus 2, read-out: IC50 against VSVΔG-SW) is 6.22.

Regarding `COc1ccc2cc3c(N)nn(C(=O)Cc4c[nH]c5ccccc45)c3nc2c1` [PCM-0166392, 1-{6-amino-12-methoxy-2,4,5-triazatricyclo[7.4.0.0³,⁷]trideca-1,3(7),5,8,10,12-hexaen-4-yl}-2-(3-indolyl)-1-ethanone], the “IC50 against VSVΔG-SW” value is “relatively high activity”.

Turning to `Nc1nc(Nc2ccccc2)sc1C(=O)c1ccccc1Cl` [PCM-0179622, (4-amino-2-anilino-1,3-thiazol-5-yl)(o-chlorophenyl)methanone], the “IC50 against VSVΔG-SW” value is listed as “relatively high activity”.

The record behind these values is publication PMC11176637 (iScience, 2024).
